Data taken from patent publication US11472811B2, “Pyrazolotriazolopyrimidine derivatives as A2A receptor antagonist” (BEIGENE, LTD., priority 2018, dated 2022).

Target: human A2A receptor (A2AR) (Homo sapiens (Human), UniProt P29274)
Assay: Luciferase reporter assay (HEK293-A2AR-luc2p/CRE/Hygro cells)
Format: cell-based
Conditions: 3 nM CGS21680, 5 h incubation
Procedure: HEK293 cells were maintained in Dulbecco's modified Eagle's medium (DMEM, Gibco) supplemented with 10% fetal bovine serum (FBS, Thermo Scientific), 100 units/mL penicillin (Gibco), and 0.1 mg/mL streptomycin (Gibco) in a humidified 37° C. environment with 5% CO2. Plasmid encoding wild-type human A2A receptor (A2AR) (in pcDNA3.1) was synthesized by Genscript (Nanjing, China). Transfection of the plasmids was performed in 6-well plates with 4×10^5 cells using Lipofectamin 2000 (ThermoFisher Scientific) according to the instruction of the manufacturer. Cell clones that stably express A2AR were established and maintained in the same complete medium as the HEK293 cells in addition of G-418 (Gibico). Expression level of A2AR in each single cell clone was determined using immunoblotting and FACS method. HEK293-A2AR stable cells were then transfected with pGL4.29[luc2P/CRE/Hygro] (Promega) luciferase reporter plasmid for establishing the HEK293-A2AR-luc2p/CRE/Hygro stable cell line.
HEK293-A2AR-luc2p/CRE/Hygro cells were seeded at a density of 5,000 cells/well in DMEM with 1% FBS and 1 U/mL adenosine deaminase (ADA) (Sigma). After 18 h, the cells were treated with 3 nM CGS21680 plus a series dilution of A2AR antagonist, the compounds disclosed herein at the concentration of 0.1˜10000 nM, prepared in DMEM with 1% FBS. After 5 h incubation, the luciferase activity in cells were measured using the Bright-Glo Luciferase Assay System (Promega) according to manufacturer's instructions. The luminescence signal was measured using a PHERAstar FS plate reader (BMG Labtech). […] Maximal luminescence intensity was determined in the presence of 3 nM CGS21680 and was set as 100%. The IC50 value was calculated from a dose dependent inhibition curve across the range of compound concentrations.

human A2A receptor (A2AR), sequence (P29274 whole entry): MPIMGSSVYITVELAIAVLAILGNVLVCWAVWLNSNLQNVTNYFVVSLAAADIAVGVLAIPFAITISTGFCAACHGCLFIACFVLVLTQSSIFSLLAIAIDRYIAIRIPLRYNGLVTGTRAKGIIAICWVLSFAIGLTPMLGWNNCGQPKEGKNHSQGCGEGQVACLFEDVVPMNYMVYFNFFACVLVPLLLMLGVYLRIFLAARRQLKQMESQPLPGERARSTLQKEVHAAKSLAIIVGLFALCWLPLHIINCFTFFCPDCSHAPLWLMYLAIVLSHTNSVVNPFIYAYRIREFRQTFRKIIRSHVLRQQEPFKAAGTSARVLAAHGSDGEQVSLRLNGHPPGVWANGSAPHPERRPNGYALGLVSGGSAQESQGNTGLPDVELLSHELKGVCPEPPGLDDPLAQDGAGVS

IC50 [nM] | SMILES
12.8 | CC(C(=O)NC1CCC(=O)CC1)(c1ccccc1)n1ncc2c1nc(N)n1nc(-c3ccco3)nc21 (centres unmarked) [Example 128, 2-(5-amino-2-(furan-2-yl)-7H-pyrazolo[4,3-e][1,2,4]triazolo[1,5-c]pyrimidin-7-yl)-N-(4-oxocyclohexyl)-2-phenylpropanamide]
6.1 | CCC(C(=O)NCC1(O)COC1)(c1ccccc1)n1ncc2c1nc(N)n1nc(-c3ccco3)nc21 (centres unmarked) [Example 103, 2-(5-amino-2-(furan-2-yl)-7H-pyrazolo[4,3-e][1,2,4]triazolo[1,5-c]pyrimidin-7-yl)-N-((3-hydroxyoxetan-3-yl)methyl)-2-phenylbutanamide]
13 | COc1cccc(C(C)(C(=O)NCC2(O)COC2)n2ncc3c2nc(N)n2nc(-c4ccco4)nc32)c1 (centres unmarked) [Example 137, 2-(5-amino-2-(furan-2-yl)-7H-pyrazolo[4,3-e][1,2,4]triazolo[1,5-c]pyrimidin-7-yl)-N-((3-hydroxyoxetan-3-yl)methyl)-2-(3-methoxyphenyl)propanamide]
39.3 | C[C@](C(=O)N[C@H]1CC[S@@+]([O-])CC1)(c1ccccc1)n1ncc2c1nc(N)n1nc(-c3ccco3)nc21 (single isomer, unassigned) [Example 146B-1]
3.2 | C[C@](C(=O)NCc1ccc(F)cn1)(c1ccccc1)n1ncc2c1nc(N)n1nc(-c3ccco3)nc21 [Example 117B, (R)-2-(5-amino-2-(furan-2-yl)-7H-pyrazolo[4,3-e][1,2,4]triazolo[1,5-c]pyrimidin-7-yl)-N-((5-fluoropyridin-2-yl)methyl)-2-phenylpropanamide]
11.8 | CC(C(=O)N[C@@H]1CNC(=O)C1)(c1ccccc1)n1ncc2c1nc(N)n1nc(-c3ccco3)nc21 (stereo partly drawn) [Example 100, 2-(5-amino-2-(furan-2-yl)-7H-pyrazolo[4,3-e][1,2,4]triazolo[1,5-c]pyrimidin-7-yl)-N—((S)-5-oxopyrrolidin-3-yl)-2-phenylpropanamide]
10.7 | CC(C(=O)N[C@H]1C[C@@](C)(O)C1)(c1ccccc1)n1ncc2c1nc(N)n1nc(-c3ccco3)nc21 (stereo partly drawn) [Example 105, 2-(5-amino-2-(furan-2-yl)-7H-pyrazolo[4,3-e][1,2,4]triazolo[1,5-c]pyrimidin-7-yl)-N-((1S,3S)-3-hydroxy-3-methylcyclobutyl)-2-phenylpropanamide]
1 | Cc1ccc(CNC(=O)C(C)(c2ccccc2)n2ncc3c2nc(N)n2nc(-c4ccco4)nc32)nc1 (centres unmarked) [Example 109, 2-(5-amino-2-(furan-2-yl)-7H-pyrazolo[4,3-e][1,2,4]triazolo[1,5-c]pyrimidin-7-yl)-N-((5-methylpyridin-2-yl)methyl)-2-phenylpropanamide]
1.9 | COc1cccnc1CNC(=O)C(C)(c1ccccc1)n1ncc2c1nc(N)n1nc(-c3ccco3)nc21 (centres unmarked) [Example 115, 2-(5-amino-2-(furan-2-yl)-7H-pyrazolo[4,3-e][1,2,4]triazolo[1,5-c]pyrimidin-7-yl)-N-((3-methoxypyridin-2-yl)methyl)-2-phenylpropanamide]

Continued, compound first:

SMILES | IC50 [nM]
CC(C(=O)Nc1ccccn1)(c1ccccc1)n1ncc2c1nc(N)n1nc(-c3ccco3)nc21 (centres unmarked) [Example 77, 2-(5-amino-2-(furan-2-yl)-7H-pyrazolo[4,3-e][1,2,4]triazolo[1,5-c]pyrimidin-7-yl)-2-phenyl-N-(pyridin-2-yl)propanamide] | 15.3
CC(C(=O)NC1CC1)(c1ccccc1)n1ncc2c1nc(N)n1nc(-c3ccco3)nc21 (centres unmarked) [Example 40, 2-(5-amino-2-(furan-2-yl)-7H-pyrazolo[4,3-e][1,2,4]triazolo[1,5-c]pyrimidin-7-yl)-N-cyclopropyl-2-phenylpropanamide] | 14.9
Nc1nc2c(cnn2C(C(=O)Nc2ccccc2)c2ccccc2)c2nc(-c3ccco3)nn12 (centres unmarked) [Example 3, 2-(5-amino-2-(furan-2-yl)-7H-pyrazolo[4,3-e][1,2,4]triazolo[1,5-c]pyrimidin-7-yl)-N,2-diphenylacetamide] | 5.2
COc1ccccc1C(C)(C(=O)N[C@H]1CC[C@](C)(O)CC1)n1ncc2c1nc(N)n1nc(-c3ccco3)nc21 (stereo partly drawn) [Example 140, 2-(5-amino-2-(furan-2-yl)-7H-pyrazolo[4,3-e][1,2,4]triazolo[1,5-c]pyrimidin-7-yl)-N-((cis)-4-hydroxy-4-methylcyclohexyl)-2-(2-methoxyphenyl)propanamide] | 1.2
CC(C(=O)NCCC1CCOC1)(c1ccccc1)n1ncc2c1nc(N)n1nc(-c3ccco3)nc21 (centres unmarked) [Example 74, 2-(5-amino-2-(furan-2-yl)-7H-pyrazolo[4,3-e][1,2,4]triazolo[1,5-c]pyrimidin-7-yl)-2-phenyl-N-(2-(tetrahydrofuran-3-yl)ethyl)propanamide] | 11.1
Nc1nc2c(cnn2C(C(=O)N[C@H]2CC[C@@H](O)CC2)c2ccccc2)c2nc(-c3ccco3)nn12 (mixture of isomers) [Example 92, 2-(5-amino-2-(furan-2-yl)-7H-pyrazolo[4,3-e][1,2,4]triazolo[1,5-c]pyrimidin-7-yl)-(cis)-N-(4-hydroxycyclohexyl)-2-phenylacetamide] | 12.4
CC(C(=O)NCC1CCOCC1)(c1ccccc1)n1ncc2c1nc(N)n1nc(-c3ccco3)nc21 (centres unmarked) [Example 97, 2-(5-amino-2-(furan-2-yl)-7H-pyrazolo[4,3-e][1,2,4]triazolo[1,5-c]pyrimidin-7-yl)-2-phenyl-N-((tetrahydro-2H-pyran-4-yl)methyl)propenamide] | 10.4
Nc1nc2c(cnn2C(C(=O)NC2CCCC2)c2ccccc2)c2nc(-c3ccco3)nn12 (centres unmarked) [Example 12, 2-(5-amino-2-(furan-2-yl)-7H-pyrazolo[4,3-e][1,2,4]triazolo[1,5-c]pyrimidin-7-yl)-N-cyclopentyl-2-phenylacetamide] | 10.2
CC(C(=O)NCCC1CCOCC1)(c1ccccc1)n1ncc2c1nc(N)n1nc(-c3ccco3)nc21 (centres unmarked) [Example 73, 2-(5-amino-2-(furan-2-yl)-7H-pyrazolo[4,3-e][1,2,4]triazolo[1,5-c]pyrimidin-7-yl)-2-phenyl-N-(2-(tetrahydro-2H-pyran-4-yl)ethyl)propanamide] | 9.3
CC1(O)CCC(NC(=O)[C@](C)(c2ccccc2)n2ncc3c2nc(N)n2nc(-c4ccco4)nc32)CC1 (stereo in doubt) [Example 33A, (S)-2-(5-amino-2-(furan-2-yl)-7H-pyrazolo[4,3-e][1,2,4]triazolo[1,5-c]pyrimidin-7-yl)-(trans)-N-(4-hydroxy-4-methylcyclohexyl)-2-phenylpropanamide] | 13.2
CC(C(=O)NCC1(O)CCCCC1)(c1ccccc1)n1ncc2c1nc(N)n1nc(-c3ccco3)nc21 (centres unmarked) [Example 72, 2-(5-amino-2-(furan-2-yl)-7H-pyrazolo[4,3-e][1,2,4]triazolo[1,5-c]pyrimidin-7-yl)-N-((1-hydroxycyclohexyl)methyl)-2-phenylpropanamide] | 7.8
CC(C(=O)NC1(CO)CC1)(c1ccccc1)n1ncc2c1nc(N)n1nc(-c3ccco3)nc21 (centres unmarked) [Example 37, 2-(5-amino-2-(furan-2-yl)-7H-pyrazolo[4,3-e][1,2,4]triazolo[1,5-c]pyrimidin-7-yl)-N-(1-(hydroxymethyl)cyclopropyl)-2-phenylpropanamide] | 500
Cc1ccccc1C(C)(C(=O)NCC1(O)COC1)n1ncc2c1nc(N)n1nc(-c3ccco3)nc21 (centres unmarked) [Example 63, 2-(5-amino-2-(furan-2-yl)-7H-pyrazolo[4,3-e][1,2,4]triazolo[1,5-c]pyrimidin-7-yl)-N-((3-hydroxyoxetan-3-yl)methyl)-2-(o-tolyl)propanamide] | 4.3
CC(C(=O)NCc1ccncc1)(c1ccccc1)n1ncc2c1nc(N)n1nc(-c3ccco3)nc21 (centres unmarked) [Example 83, 2-(5-amino-2-(furan-2-yl)-7H-pyrazolo[4,3-e][1,2,4]triazolo[1,5-c]pyrimidin-7-yl)-2-phenyl-N-(pyridin-4-ylmethyl)propenamide] | 11.2
Nc1nc2c(cnn2C(C(=O)NCc2ccc(OC(F)(F)F)cc2)c2ccccc2)c2nc(-c3ccco3)nn12 (centres unmarked) [Example 24, 2-(5-amino-2-(furan-2-yl)-7H-pyrazolo[4,3-e][1,2,4]triazolo[1,5-c]pyrimidin-7-yl)-2-phenyl-N-(4-(trifluoromethoxy)benzyl)acetamide] | 5.6
CC(C(=O)N[C@H]1CC[C@@](C)(O)CC1)(c1ccccc1)n1ncc2c1nc(N)n1nc(-c3ccco3)nc21 (stereo partly drawn) [Example 33, 2-(5-amino-2-(furan-2-yl)-7H-pyrazolo[4,3-e][1,2,4]triazolo[1,5-c]pyrimidin-7-yl)-(trans)-N-(4-hydroxy-4-methylcyclohexyl)-2-phenylpropanamide] | 8.4
Nc1nc2c(cnn2C(C(=O)N[C@@H]2CCC[C@@H]2O)c2ccccc2)c2nc(-c3ccco3)nn12 (stereo partly drawn) [Example 90, 2-(5-amino-2-(furan-2-yl)-7H-pyrazolo[4,3-e][1,2,4]triazolo[1,5-c]pyrimidin-7-yl)-N-((1R,2S)-2-hydroxycyclopentyl)-2-phenylacetamide] | 6.9
